Measurements: patent US20240390464A1, “Treatment of Adults With Overweight or Obesity With or Without Weight-Related Comorbidities” (Carmot Therapeutics Inc., priority 2023, published 2024)
Read-outs that look alike come from different tables or passages of the source. Numbered stars: 1 amine (or outer) side, 2 acyl side, 3 side chain; on linkers, the order of the positions; unused ones are H or OH. Square brackets hold non-standard residues; d marks the D form. Side chains are listed from the residue outwards. Peptide text beside a SMILES is read from it. * marks the point of attachment. Isobutyryl(2-(3-CN-5-F-Ph)) = CC(C)(C(=O)*)c1cc(F)cc(C#N)c1; C20 diacid = O=C(O)CCCCCCCCCCCCCCCCCCC(=O)*; γGlu = O=C(O)[C@H](CCC(=O)[*:2])N[*:1]; AEEA = NCCOCCOCC(=O)O; Aib = CC(C)(N)C(=O)O; βAla = NCCC(=O)O

What was measured:
[1] = Phase 1 SAD Cohorts 1-5: pharmacokinetics; conditions: human, in vivo; for Vd/F: read-out: Vz/F
Protocol: The secondary objectives are: • To evaluate the pharmacokinetics of single-ascending doses of CT-388 in otherwise healthy overweight and obese adult participants; and • To evaluate the pharmacodynamic (PD) effect of a single dose of CT-388 on body weight and glucose homeostasis in both the fasted state and in the setting of a mixed meal tolerance test (MMTT) challenge in otherwise healthy overweight and obese adult participants.
• Cohort 1: One dose containing 0.5 mg of CT-388 or matched placebo administered subcutaneously in the abdomen • Cohort 2: One dose containing 2.0 mg of CT-388 or matched placebo administered subcutaneously in the abdomen • Cohort 3: One dose containing 5.0 mg of CT-388 or matched placebo administered subcutaneously in the abdomen • Cohort 4: One dose containing 7.5 mg of CT-388 or matched placebo administered subcutaneously in the abdomen • Cohort 5: One dose containing 6.0 mg of CT-388 or matched placebo administered subcutaneously in the abdomen
Time-concentration profiles following a single dose SC administration of CT-388 to participants in Cohort 1 (0.5 mg), Cohort 2 (2 mg), Cohort 3 (5 mg), Cohort 4 (7.5 mg) and Cohort 5 (6 mg) are shown in Table 8 below.

[2] = Phase 1 MD Cohorts 11 and 12: pharmacokinetics; conditions: human, in vivo, SC QW
Source text: The secondary objectives of this study are: • To evaluate the pharmacokinetics of CT-388 across 12 consecutive weekly doses for Cohorts 11 and 14 (and additionally, up to 24 weeks for Cohorts 12 and 13); and • To evaluate the PD effect of CT-388 across 12 consecutive weekly doses for Cohorts 11 and 14 (and additionally up to 24 weeks for Cohorts 12 and 13) on body weight and glucose homeostasis in both the fasted state and in the setting of an OGTT in participants with or without T2DM. […] Cohorts 11 and 12 included participants who were obese without T2DM and cohort 13 included patients who were obese with T2DM. Endpoints of this study were safety, including TEAEs, labs, vitals and ECGs; PK, including CT-388 PK concentrations and parameters; and key PD endpoints, including week 12 ([…]) and week 24 ([…]): • a. body weight: % change; absolute change; • b. change in HbA1c, fasting glucose, fasting insulin, HOMA-IR; and • c. waist and hip circumference.

[3] = Cohort 1, single SC dose 0.5 mg, mean ± standard deviation
[4] = Cohort 2, single SC dose 2 mg, mean ± standard deviation
[5] = Cohort 3, single SC dose 5 mg, mean ± standard deviation
[6] = Cohort 4, single SC dose 7.5 mg, mean ± standard deviation
[7] = Cohort 5, single SC dose 6 mg, mean ± standard deviation

## CC[C@H](C)[C@H](NC(=O)[C@H](CC(C)C)NC(=O)[C@H](Cc1c[nH]c2ccccc12)NC(=O)[C@H](CCC(N)=O)NC(=O)[C@@H](NC(=O)[C@H](Cc1ccccc1)NC(=O)[C@H](C)NC(=O)[C@H](CCCCNC(=O)COCCOCCNC(=O)COCCOCCNC(=O)CC[C@H](NC(=O)CCCCCCCCCCCCCCCCCCC(=O)O)C(=O)O)NC(=O)[C@H](CCC(N)=O)NC(=O)[C@H](C)NC(=O)[C@@H](NC(=O)[C@H](CCCCN)NC(=O)[C@H](CC(=O)O)NC(=O)[C@H](CC(C)C)NC(=O)C(C)(C)NC(=O)[C@@H](NC(=O)[C@H](CO)NC(=O)[C@H](Cc1ccc(O)cc1)NC(=O)[C@H](CC(=O)O)NC(=O)[C@H](CO)NC(=O)[C@@H](NC(=O)[C@H](Cc1ccccc1)NC(=O)[C@@H](NC(=O)CNC(=O)[C@H](CCC(=O)O)NC(=O)CCNC(=O)C(C)(C)c1cc(F)cc(C#N)c1)[C@@H](C)O)[C@@H](C)O)[C@@H](C)CC)[C@@H](C)CC)C(C)C)C(=O)N[C@@H](C)C(=O)NCC(=O)NCC(=O)N1CCC[C@H]1C(=O)N[C@@H](CO)C(=O)N[C@@H](CO)C(=O)NCC(=O)N[C@@H](C)C(=O)N1CCC[C@H]1C(=O)N1CCC[C@H]1C(=O)N1CCC[C@H]1C(=O)N[C@@H](CO)C(N)=O [CT-388] ({Isobutyryl(2-(3-CN-5-F-Ph))-βAla}-EGTFTSDYSI[Aib]LDKIAQK([AEEA-AEEA-γGlu-C20 diacid])AFVQWLIAGGPSSGAPPPS-NH2)
[1]; [3]
  AUC(0-inf): 12900 ± 1090 ng·h/mL
  CL/F: 0.65 mL/min
  Cmax: 52.4 ± 10 ng/mL
  MRT last: 128 ± 8.2 h
  Vd/F: 5.8 ± 0.7 L
[1]; Cohort 1, single SC dose 0.5 mg, range of minimum to maximum, read-out: t1/2 range
  half-life: 3.83 to 7.11 days
[1]; [4]
  AUC(0-inf): 47400 ± 10600 ng·h/mL
  CL/F: 0.733 mL/min
  Cmax: 216 ± 51.4 ng/mL
  MRT last: 122 ± 5.6 h
  Vd/F: 7.7 ± 1.8 L
[1]; Cohort 2, single SC dose 2 mg, range of minimum to maximum, read-out: t1/2 range
  half-life: 4.52 to 5.92 days
[1]; Cohort 3, single SC dose 5 mg, mean
  CL/F: 0.64 mL/min
[1]; [5]
  AUC(0-inf): 140000 ± 41700 ng·h/mL
  Cmax: 831 ± 263 ng/mL
  MRT last: 114 ± 2.3 h
  Vd/F: 6.8 ± 2.1 L
[1]; Cohort 3, single SC dose 5 mg, range of minimum to maximum, read-out: t1/2 range
  half-life: 4.49 to 6.09 days
[1]; Cohort 4, single SC dose 7.5 mg, mean
  CL/F: 0.547 mL/min
[1]; [6]
  AUC(0-inf): 235000 ± 39000 ng·h/mL
  Cmax: 1160 ± 110 ng/mL
  MRT last: 119 ± 5.3 h
  Vd/F: 6.6 ± 1.3 L
[1]; Cohort 4, single SC dose 7.5 mg, range of minimum to maximum, read-out: t1/2 range
  half-life: 4.88 to 6.3 days
[1]; [7]
  AUC(0-inf): 100000 ± 15000 ng·h/mL
  CL/F: 0.99 mL/min
  Cmax: 552 ± 80.1 ng/mL
  MRT last: 122 ± 9.6 h
  Vd/F: 11 ± 1.2 L
[1]; Cohort 5, single SC dose 6 mg, range of minimum to maximum, read-out: t1/2 range
  half-life: 4.23 to 5.88 days
[1]; SAD Cohorts 1-5, single SC dose, all except two individual cases
  Tmax: > 24 h
[1]; SAD Cohorts 1-5, single SC dose, read-out: t1/2 (median) (converted)
  half-life: ~5 days
[2]
  half-life: ~6.25 days
